Measurements published in ChEMBL document CHEMBL4630901 (2021).

How the values were obtained:
[1] = biological target: Alpha-2B adrenergic receptor (Homo sapiens) (UniProt P18089); details: Compound concentration 10.0 uM
[2] = biological target: Sodium-dependent dopamine transporter (Homo sapiens) (UniProt Q01959); details: Compound concentration 10.0 uM
[3] = biological target: Estrogen receptor (Homo sapiens) (UniProt P03372); details: Compound concentration 10.0 uM
[4] = biological target: Motilin receptor (Homo sapiens) (UniProt O43193); details: Compound concentration 10.0 uM
[5] = biological target: GABA-A receptor; anion channel (Rattus norvegicus) (UniProt O09028+P15431+P18506+P18508+P19969+P20236+P23574+P23576+P28471+P28473+P30191+P62813+P63079+P63138+Q91ZM7+Q9ES14); details: Compound concentration 10.0 uM
[6] = biological target: D(2) dopamine receptor (Homo sapiens) (UniProt P14416); details: Compound concentration 10.0 uM
[7] = biological target: Sodium-dependent dopamine transporter (Homo sapiens) (UniProt Q01959); details: Compound concentration 10.0 uM; remark: listed apart in the source
[8] = biological target: D(2) dopamine receptor (Homo sapiens) (UniProt P14416); details: Compound concentration 10.0 uM; remark: listed apart in the source
[9] = biological target: Endothelin-1 receptor (Homo sapiens) (UniProt P25101); details: Compound concentration 10.0 uM
[10] = biological target: Histamine H3 receptor (Homo sapiens) (UniProt Q9Y5N1); details: Compound concentration 10.0 uM
[11] = biological target: Adenosine receptor A3 (Homo sapiens) (UniProt P0DMS8); details: Compound concentration 10.0 uM
[12] = biological target: Insulin receptor (Homo sapiens) (UniProt P06213); details: Rattus norvegicus; Compound concentration 10.0 uM
[13] = biological target: Beta-1 adrenergic receptor (Homo sapiens) (UniProt P08588); details: Compound concentration 10.0 uM
[14] = biological target: T1, Alpha-2C adrenergic receptor (Homo sapiens) (UniProt P18825); details: Compound concentration 10.0 uM
T1 sequence (whole entry): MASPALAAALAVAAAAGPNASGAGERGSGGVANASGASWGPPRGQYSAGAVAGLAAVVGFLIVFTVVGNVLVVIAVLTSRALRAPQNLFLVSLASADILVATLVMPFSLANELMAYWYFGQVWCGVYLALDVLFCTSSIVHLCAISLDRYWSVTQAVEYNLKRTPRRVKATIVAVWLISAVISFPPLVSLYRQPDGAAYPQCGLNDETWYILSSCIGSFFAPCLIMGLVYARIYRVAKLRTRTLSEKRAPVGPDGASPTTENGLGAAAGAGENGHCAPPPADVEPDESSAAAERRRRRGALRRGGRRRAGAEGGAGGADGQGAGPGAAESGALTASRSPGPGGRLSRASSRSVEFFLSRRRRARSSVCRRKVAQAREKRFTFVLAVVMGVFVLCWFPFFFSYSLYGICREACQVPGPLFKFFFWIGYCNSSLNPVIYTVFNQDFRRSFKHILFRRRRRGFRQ

[15] = biological target: T2, Muscarinic acetylcholine receptor M1 (Homo sapiens) (UniProt P11229); details: Compound concentration 10.0 uM
T2 sequence (whole entry): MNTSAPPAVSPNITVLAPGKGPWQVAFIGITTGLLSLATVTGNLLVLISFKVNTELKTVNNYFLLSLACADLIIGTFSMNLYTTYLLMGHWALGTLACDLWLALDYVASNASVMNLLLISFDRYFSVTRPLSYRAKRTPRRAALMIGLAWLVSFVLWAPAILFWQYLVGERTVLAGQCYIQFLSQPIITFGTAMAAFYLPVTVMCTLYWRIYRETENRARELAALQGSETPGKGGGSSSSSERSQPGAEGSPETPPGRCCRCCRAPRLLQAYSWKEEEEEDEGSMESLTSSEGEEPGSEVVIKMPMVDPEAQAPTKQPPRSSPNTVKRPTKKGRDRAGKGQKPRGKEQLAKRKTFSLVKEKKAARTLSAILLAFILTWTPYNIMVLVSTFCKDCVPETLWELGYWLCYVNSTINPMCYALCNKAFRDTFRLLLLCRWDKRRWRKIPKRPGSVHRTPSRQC

Measured: inhibition

Chain of Sodium-dependent dopamine transporter (Homo sapiens) (Q01959 whole entry): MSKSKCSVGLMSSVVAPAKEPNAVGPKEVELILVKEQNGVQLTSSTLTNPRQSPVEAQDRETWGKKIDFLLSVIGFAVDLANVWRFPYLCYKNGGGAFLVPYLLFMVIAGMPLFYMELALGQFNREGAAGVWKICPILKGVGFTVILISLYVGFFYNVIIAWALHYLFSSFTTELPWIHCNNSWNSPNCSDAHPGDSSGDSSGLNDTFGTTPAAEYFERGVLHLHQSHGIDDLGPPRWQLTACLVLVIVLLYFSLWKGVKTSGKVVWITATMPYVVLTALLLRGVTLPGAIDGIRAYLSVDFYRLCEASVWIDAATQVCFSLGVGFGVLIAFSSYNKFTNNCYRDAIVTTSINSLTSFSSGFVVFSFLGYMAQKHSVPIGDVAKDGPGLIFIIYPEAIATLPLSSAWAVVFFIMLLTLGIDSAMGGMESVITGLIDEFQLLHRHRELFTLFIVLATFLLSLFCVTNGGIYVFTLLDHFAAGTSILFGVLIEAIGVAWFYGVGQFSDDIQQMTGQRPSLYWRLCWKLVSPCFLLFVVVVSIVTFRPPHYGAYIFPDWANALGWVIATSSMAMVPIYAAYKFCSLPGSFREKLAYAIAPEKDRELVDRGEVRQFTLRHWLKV
Chain of D(2) dopamine receptor (Homo sapiens) (P14416 whole entry): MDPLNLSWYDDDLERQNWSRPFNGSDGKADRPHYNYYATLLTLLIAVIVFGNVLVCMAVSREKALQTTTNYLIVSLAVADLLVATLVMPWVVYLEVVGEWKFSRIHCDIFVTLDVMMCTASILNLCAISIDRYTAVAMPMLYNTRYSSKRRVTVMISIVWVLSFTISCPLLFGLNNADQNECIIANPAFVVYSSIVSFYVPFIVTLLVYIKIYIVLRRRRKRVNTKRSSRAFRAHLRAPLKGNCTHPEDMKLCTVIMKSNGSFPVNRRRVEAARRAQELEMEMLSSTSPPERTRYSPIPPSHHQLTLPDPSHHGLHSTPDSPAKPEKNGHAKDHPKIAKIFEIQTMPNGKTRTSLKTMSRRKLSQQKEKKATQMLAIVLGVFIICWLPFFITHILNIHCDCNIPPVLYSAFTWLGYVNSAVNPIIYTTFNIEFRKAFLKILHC
Chain of Motilin receptor (Homo sapiens) (O43193 whole entry): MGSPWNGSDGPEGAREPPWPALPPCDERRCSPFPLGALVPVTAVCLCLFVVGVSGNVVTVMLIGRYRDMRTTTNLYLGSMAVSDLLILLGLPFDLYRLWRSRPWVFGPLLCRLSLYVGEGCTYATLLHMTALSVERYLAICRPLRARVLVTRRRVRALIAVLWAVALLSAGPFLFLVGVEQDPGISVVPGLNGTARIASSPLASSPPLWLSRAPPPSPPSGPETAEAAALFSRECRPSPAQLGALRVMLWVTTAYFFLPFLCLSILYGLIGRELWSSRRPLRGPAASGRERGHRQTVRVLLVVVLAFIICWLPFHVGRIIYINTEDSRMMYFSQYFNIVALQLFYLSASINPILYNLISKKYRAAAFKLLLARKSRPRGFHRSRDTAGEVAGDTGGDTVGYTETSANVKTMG
Chain of Histamine H3 receptor (Homo sapiens) (Q9Y5N1 whole entry): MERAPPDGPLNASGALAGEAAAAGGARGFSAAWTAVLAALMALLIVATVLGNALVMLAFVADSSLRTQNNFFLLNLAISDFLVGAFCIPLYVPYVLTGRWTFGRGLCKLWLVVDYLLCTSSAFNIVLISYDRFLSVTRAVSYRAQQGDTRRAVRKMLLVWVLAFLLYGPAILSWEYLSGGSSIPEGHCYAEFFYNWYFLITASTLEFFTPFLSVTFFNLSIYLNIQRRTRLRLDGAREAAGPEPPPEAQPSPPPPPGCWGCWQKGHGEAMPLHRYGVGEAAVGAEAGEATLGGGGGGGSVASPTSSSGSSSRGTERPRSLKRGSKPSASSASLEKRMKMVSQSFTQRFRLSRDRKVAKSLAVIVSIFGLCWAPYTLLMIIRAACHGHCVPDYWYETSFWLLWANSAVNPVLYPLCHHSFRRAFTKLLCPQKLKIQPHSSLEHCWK
Chain of Estrogen receptor (Homo sapiens) (P03372 whole entry): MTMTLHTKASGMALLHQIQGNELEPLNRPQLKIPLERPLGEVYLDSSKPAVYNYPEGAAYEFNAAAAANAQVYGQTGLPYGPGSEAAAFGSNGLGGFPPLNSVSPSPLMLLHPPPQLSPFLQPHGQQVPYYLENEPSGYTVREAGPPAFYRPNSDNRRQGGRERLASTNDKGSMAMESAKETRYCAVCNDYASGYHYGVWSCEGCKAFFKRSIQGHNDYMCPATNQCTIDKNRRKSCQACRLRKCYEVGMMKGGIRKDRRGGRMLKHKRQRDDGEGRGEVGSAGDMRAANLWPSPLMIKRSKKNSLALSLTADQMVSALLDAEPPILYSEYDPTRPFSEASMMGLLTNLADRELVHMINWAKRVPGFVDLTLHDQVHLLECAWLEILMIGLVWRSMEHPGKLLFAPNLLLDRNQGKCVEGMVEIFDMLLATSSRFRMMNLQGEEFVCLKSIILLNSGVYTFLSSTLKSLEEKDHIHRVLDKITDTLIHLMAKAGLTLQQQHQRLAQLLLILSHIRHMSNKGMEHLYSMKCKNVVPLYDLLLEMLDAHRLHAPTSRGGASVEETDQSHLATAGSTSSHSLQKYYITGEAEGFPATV
Chain of Alpha-2B adrenergic receptor (Homo sapiens) (P18089 whole entry): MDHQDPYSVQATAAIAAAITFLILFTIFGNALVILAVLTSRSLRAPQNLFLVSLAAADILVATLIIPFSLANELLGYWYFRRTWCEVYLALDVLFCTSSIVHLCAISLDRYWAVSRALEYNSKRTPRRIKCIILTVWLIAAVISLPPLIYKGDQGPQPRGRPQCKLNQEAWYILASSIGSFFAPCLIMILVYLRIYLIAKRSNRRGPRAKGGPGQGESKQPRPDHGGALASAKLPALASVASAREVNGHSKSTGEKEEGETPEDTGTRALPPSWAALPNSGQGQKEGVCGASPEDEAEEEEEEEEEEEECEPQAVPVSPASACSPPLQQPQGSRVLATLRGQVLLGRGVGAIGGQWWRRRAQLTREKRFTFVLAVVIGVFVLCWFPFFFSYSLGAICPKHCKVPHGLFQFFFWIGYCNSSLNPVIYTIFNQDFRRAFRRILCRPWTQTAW
Chain of Adenosine receptor A3 (Homo sapiens) (P0DMS8 whole entry): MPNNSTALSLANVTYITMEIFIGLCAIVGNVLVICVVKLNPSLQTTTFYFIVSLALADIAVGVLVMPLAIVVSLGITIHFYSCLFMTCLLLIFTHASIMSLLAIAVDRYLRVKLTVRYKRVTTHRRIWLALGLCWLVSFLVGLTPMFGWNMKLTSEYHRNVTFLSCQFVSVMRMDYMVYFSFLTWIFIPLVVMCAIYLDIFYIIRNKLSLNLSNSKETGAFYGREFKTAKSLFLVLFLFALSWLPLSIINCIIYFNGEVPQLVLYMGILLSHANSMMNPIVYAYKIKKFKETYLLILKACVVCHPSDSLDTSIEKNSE
Chain of Beta-1 adrenergic receptor (Homo sapiens) (P08588 whole entry, looked up): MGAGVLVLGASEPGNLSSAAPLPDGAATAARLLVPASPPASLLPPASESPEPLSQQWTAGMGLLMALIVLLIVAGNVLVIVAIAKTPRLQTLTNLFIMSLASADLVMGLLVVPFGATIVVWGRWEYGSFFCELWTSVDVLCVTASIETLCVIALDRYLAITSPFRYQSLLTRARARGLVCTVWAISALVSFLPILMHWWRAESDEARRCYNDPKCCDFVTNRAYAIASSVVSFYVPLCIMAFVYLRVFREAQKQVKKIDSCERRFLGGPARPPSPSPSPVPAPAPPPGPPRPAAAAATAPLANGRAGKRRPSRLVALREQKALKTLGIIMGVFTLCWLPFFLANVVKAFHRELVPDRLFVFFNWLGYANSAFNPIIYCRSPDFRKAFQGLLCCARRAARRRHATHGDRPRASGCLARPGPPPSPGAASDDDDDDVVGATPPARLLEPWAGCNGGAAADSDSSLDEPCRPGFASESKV
Chain of Endothelin-1 receptor (Homo sapiens) (P25101 whole entry): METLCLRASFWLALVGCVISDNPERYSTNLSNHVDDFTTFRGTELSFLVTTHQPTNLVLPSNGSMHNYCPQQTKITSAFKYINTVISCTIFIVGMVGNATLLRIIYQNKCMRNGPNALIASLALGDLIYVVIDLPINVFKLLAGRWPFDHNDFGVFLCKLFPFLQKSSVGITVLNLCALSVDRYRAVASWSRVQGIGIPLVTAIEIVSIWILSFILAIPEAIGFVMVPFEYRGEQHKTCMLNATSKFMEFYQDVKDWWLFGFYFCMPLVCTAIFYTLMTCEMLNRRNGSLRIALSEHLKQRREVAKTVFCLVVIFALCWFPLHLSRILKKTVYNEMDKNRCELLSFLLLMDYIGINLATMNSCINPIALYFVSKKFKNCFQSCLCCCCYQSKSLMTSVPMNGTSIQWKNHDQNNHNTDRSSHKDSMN

Cc1c(N2CCNCC2)nc2ccc(Br)cc2c1C(=O)NC[C@H](CCC(=O)O)c1ccccc1Cl [BAY-403]
inactive: [1] -3.2% | [2] 33.5%

Cc1c(N2CCCC2)nc2ccc(Br)cc2c1C(=O)NC[C@H](CCC(=O)O)c1ccccc1Cl [BAY-6672]
inactive: [3] 1% | [4] 10% | [5] 6% | [6] 6% | [7] 15% | [8] 3% | [9] -1% | [10] -0% | [11] 15% | [12] 11% | [13] 3% | [14] 6% | [15] 9%
